According to patent US20250255876A1, “COMPOSITIONS AND METHODS FOR CANCER TREATMENT” (ARIEL SCIENTIFIC INNOVATIONS LTD., priority 2021, published 2025):

Tested on: γH2AX foci in B16F10 cells
Assay: γH2AX foci immunofluorescence, B16F10 cells
Assay type: cell-based, mouse
Description: FIGS. 15A-15B3 present micrographs and graphs showing that c #3 increases DNA damage after combined treatment. (15A). Representative figures of TH2AX in A549 cells (left panel), H1975 (middle panel) and B16F10 (right panel) with different treatments as indicated. Quantification of A549 (15B1), H1975(15B2), and B16F10 cells(15B3)′ foci/cell in each treatment. The total number of cells scored is indicated. Error bars=1 SD, P-value was calculated by two-tailed t-test. In all experiments, A549 cells were treated with 10 μM cisplatin and H1975 and B16F10 cells with 5 μM cisplatin. All cell lines were co-treated with 50 μM of c #3. Cells were co-treated for 16 h before analysis.SD=1, The P-value was calculated using a one-tailed t-test.
Combined treatment of cisplatin with c #3 correlates with an increase in DNA damage. Levels of γ-H2AX foci, a marker for DNA double-strand breaks, were compared in H1975, A549 and B16F10 cell lines.

SMILES: Cc1oc(-c2ccco2)nc1CC(=O)N[C@@H](C(=O)O)c1ccccc1 [Compound 3]
- increase in γ-H2AX foci/cell in co-treated cells (B16F10, 5 μM cisplatin + 50 μM c #3, 16 h): 2 fold
- γ-H2AX signal, c #3 alone (B16F10, c #3 alone): no effect on the γ-H2AX signal
